Measured values taken from patent publication US20160340656A1, “PEPTIDES DERIVED FROM GSE 24.2 FOR TREATING DISEASES CAUSED BY OXIDATIVE STRESS AND DAMAGE TO DNA” (CONSEJO SUPERIOR DE INVESTIGACIONES CIENTÍFICAS (CSIC), priority 2013, published 2016).
Entries after “also recorded” stand apart in the source; their conditions may differ.

Experiments:
[1] = tested on: AT3487 cells from patients with ataxia telangiectasia; assay: Damage to DNA in AT cells: phosphorylated histone H2AX (Ser139) foci after lentiviral expression of GSE24.2; type: cell-based, human
Description: FIG. 1. Determination of damage to DNA in AT cells: AT3784 AT cells were infected with a lentiviral vector expressing GSE24.2 or a GFP empty vector and were fixed 24 hours later to be processed and hybridised with an antibody against phosphorylated histone H2AX (Ser139). Control C-1787 cells were used as the negative control. Next they were hybridised with a fluorescein-labelled antibody and were stained with DAPI to locate the nuclei.
To perform this test, cell lines from patients with ataxia telangiectasia (AT, from the Coriell repository) with a mutation in the gene ATM and denominated AT3487 were used. Cell line C-1787 was used as the control cell line. The cells were infected with the bicistronic lentiviral vector pCMV-GFP-GSE24.2. After 48 hours of infection the cells were fixed with formaldehyde and then permeabilized by treating them with Triton X-100. The damage to DNA was estimated by studying the signal after hybridisation of the cells with an antibody against histone H2AX Ser139 and subsequent hybridisation with an antibody bound to fluorescein. The number of foci with stain for histone H2AX/nucleus was determined by confocal microscopy in a total of 200 cells and the data represented as a percentage of cells with a specific number of foci.

IL6 = assay: Expression of proinflammatory cytokine IL6 in AT719-P cells; type: cell-based, human; settings: relative to β-actin
Description: FIG. 12. Levels of expression of proinflammatory cytokines in ataxia telangiectasia cells after expressing peptides GSE24.2 and GSE4. AT719-P AT cells were infected with a lentiviral vector expressing GSE24.2, GSE4 or a GFP empty vector and three weeks later the RNA was extracted and after obtaining the corresponding cDNA, the levels of expression of the proinflammatory cytokines IL6 and IL8 were determined. AT736C cells were used as a control. The levels of expression of the gene β-actin were measured as control of expression. The results are expressed as the relative increase in the number of times of expression of each of the genes compared to β-actin, considering the levels of expression of AT736C cells as 1.
As the peptide denominated GSE4 was smaller than the peptides with ability to repair telomerase activity, we studied if it had the same activity as peptide GSE24.2 for attenuating oxidative stress, expression of proinflammatory cytokines and repairing the senescence in ataxia telangiectasia cells. […] Finally, given that the increase in expression of the interleukins IL6 and IL8 are associated with a secretory phenotype linked to senescence in ataxia telangiectasia, we evaluated the ability of both peptides GSE24.2 and GSE4 to reduce senescence by evaluating senescence-associated β-galactosidase activity (SA-beta-Gal) (FIG. 13).

HeLa cells = assay: Internalisation of fluorescein-labelled peptides, confocal fluorescence microscopy; type: cell-based
Description: (§1) FIG. 21. Transfection of peptides GSE4 and GSE4NLS1 in HeLa cells. Peptides GSE4 and GSE4NLS1 (SEQ ID No. 7) labelled with fluorescein and obtained by chemical synthesis were transfected into HeLa cells using the Proteojuice reagent and viewed in a confocal fluorescence microscope at 9, 24 and 48 hours after transfection.
as §1, with “22. Internalisation” for “21. Transfection”, “added to the culture medium of” for “transfected into”, “cells” for “cells using the Proteojuice reagent”
Given the ability of sequence NLS1 to contribute to the activity of GSE24.2, a synthetic peptide into which this sequence was placed in the 3′ region of peptide GSE4 was constructed as this was the peptide for which the greatest telomerase activation was obtained. The peptides obtained by chemical synthesis were labelled with fluorescein to facilitate their visualisation in a fluorescence microscope. Two experiments were performed in parallel, in one the peptides were transfected using Proteojuice reagent and in the other they were added directly to the culture medium. […] An important difference observed was that when the peptides were added directly to the culture medium, the peptide entered into a higher number of cells than when Proteojuice was used. The reagent provided greater effectiveness for internalisation but into a small number of cells.

F9A353V cells = assay: Repair of damage to DNA: Western blot of histone H2AX (Ser139) in F9A353V cells transfected with synthetic peptides; type: cell-based
Description: FIG. 6. Western blot of F9 and F9A353V cells after 24 hours of transfection with chemically synthesized peptides derived from GSE24.2. The peptides indicated on each line of gel were transfected (15 μg of each peptide) on a 30 mm plate. After separating the protein extracts on polyacrylamide gels and transferring them to a nitrocellulose membrane, the membrane was hybridised with an antibody against histone H2AX (Ser139) and then with an antibody against α-tubulin as a loading control.
FIG. 7. Quantification of Western blot of FIG. 6. The signal obtained with histone H2AX (Ser139) was corrected with the signal of α-tubulin considering the signal obtained with the F9 cells transfected with beta-galactosidase (as control) as 1, using the NIH-Image program.
FIG. 8. Western blot of F9 and F9A353V cells after 24 of transfection with the GSE4 peptide at increasing concentrations. […]
FIG. 9. Quantification of the Western blot of FIG. 8. […]
In order to optimise the operating conditions of peptide GSE4, different amounts of peptide GSE4 were transfected into F9A353V cells and the amount of damage to DNA was determined using a specific antibody as was performed in FIG. 6 (FIG. 8). After quantification of the Western blot (FIG. 9), maximum inhibition of damage to DNA was obtained by transfecting 8 μg of peptide GSE4.

[2] = 200 cells, lentiviral expression of GSE24.2

Q: Which results are given for “GFINLDKPSNPSSHEVVAWIRRILRVEKTGHSGTLDPKVTGCLIVCIERATRLVK (GSE24.2; listed as Homo sapiens) [55-amino-acid peptide corresponding to the protein dyskerin; known from WO2007/090911]”?
A: correction of overall damage to DNA [1]: 40%; AT cells in which levels of damage to DNA are reduced [1, 2]: 25%; AT cells in which overall damage to DNA is fully corrected [1, 2]: 20%

Q: GFINLDKPSNP [GSE4] was tested. Which “reduction of levels of expression of IL6” value (IL6) did it give?
A: 80%

Q: And the entry into cells (HeLa cells; peptide simply added to the culture medium)?
A: entered the cells

Q: What about the entry into cells (HeLa cells; transfected using Proteojuice reagent) of the same sequence?
A: entered the cells

Q: What about the “amount of peptide transfected giving maximum inhibition of damage to DNA” value (F9A353V cells; increasing amounts of peptide) of the same sequence?
A: 8 µg

Q: And the “repair of damage to DNA (phosphorylation of histone H2AX)” value (F9A353V cells; peptides lipofected with Proteojuice, 24 hours)?
A: substantially improved the activity of the full domain; also recorded: smallest sized peptide able to repair the damage to DNA
